# From paper PMC12948223, “HSP70 Interactome‐Mediated Proteolysis Targeting Chimera (HSP70‐PROTAC) for Ferroptosis‐Driven Cancer Treatment” (Advanced Science, 2025)
# Read-outs that look alike come from different tables or passages of the source.
# Legend:
# [1] = target: T1, GPX4 (Homo sapiens, UniProt P36969); test: GPX4 degradation by western blot in HT1080 cells; format: cell-based; design: determine the changes in the endogenous levels of GPX4 by western blot assay; endogenous in cells; host or cells: HT1080 fibrosarcoma cells, including siRNA-knockdown derivatives; conditions: for remaining activity at 0.5 µM: HT-1080, HT1080 cells, read-out: GPX4 % of control; for remaining activity at 1 µM: read-out: % of control (GPX4/GAPDH)
# T1 sequence (P36969 1-170 isoform P36969-2): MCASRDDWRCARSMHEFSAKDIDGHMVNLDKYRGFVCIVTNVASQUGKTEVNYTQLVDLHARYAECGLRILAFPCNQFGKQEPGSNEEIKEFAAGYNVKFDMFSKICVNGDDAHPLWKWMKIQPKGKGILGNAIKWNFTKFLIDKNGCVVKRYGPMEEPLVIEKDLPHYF
# How it was run: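 HT1080 fibrosarcoma cells were treated 24 h with PROTACs at 0.1, 0.3, 1 and 3 µM. Endogenous GPX4 was measured by western blot of RIPA lysates, with band intensities normalized to a loading control.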
# [2] = target: T2, GPX4 (Homo sapiens, UniProt P36969); test: SPR binding to GPX4 recombinant protein
# T2 construct: purchased Cayman 26 906
# T2 sequence (P36969 28-197 limits assumed): T1 sequence (P36969 1-170 isoform P36969-2)
# Protocol: The SPR data was generated by our Shared Instrumentation Core Facility at the Hangzhou Institute of Medicine (HIM), Chinese Academy of Sciences. The in vitro binding affinity of compound GDAz‐3 to recombinant proteins (Hsc70, MedChemExpress, #HY‐P73915A; GPX4, Cayman, Item No. 26 906) was evaluated using a Biacore 8K system (Cytiva (GE)) with the method of LMW multi‐cycle kinetics/affinity. Pipelines and chips were flushed with PBS (pH 7.4) running buffer, and then, human Hsc70 was immobilized on a CM5 sensor chip. Analysis was performed at a flow rate of 30 µL min^−1 at 25 °C with the injection of incremental concentrations of compounds dissolved in buffer solution (the final concentration of DMSO was 5%). For ternary‐complex binding measurements, Hsc70 was immobilized on a CM5 sensor chip, and compound GDAz‐3 at a concentration of 1 µM was preincubated with GPX4. The binding and dissociation durations were recorded as response unit values for 120 and 120 s in succession, respectively. Finally, the data were analyzed by Biacore evaluation software with the method of LMW multi‐cycle kinetics/affinity.
# [3] = test system: MDA; test: MDA content in HT1080 cells; format: cell-based, human; conditions: HT1080 cells, 0.1, 0.5 and 1 µM, 24 h
# Protocol: HT1080 cells were seeded into 10‐cm diameter culture dishes at a density of 2 × 10⁶ cells overnight and then exposed to GDAz‐3 (0.1, 0.5, and 1 µM). The cells were cultured for another 24 h, and the culture medium was discarded, washed with PBS, and lysed using IP lysis buffer (Servicebio, G2038). After lysis, the samples were centrifuged at 12 000 × g for 15 min at 4 °C. The supernatant was collected, and the MDA content was determined according to the instructions of the Lipid Peroxidation MDA Assay Kit (Beyotime Biotechnology, S00131S).
smiles,measurement,setting,value
"COc1ccc(-c2nc(-c3cc(C(F)(F)F)cc(C(F)(F)F)c3)n(Cc3ccc(C(=O)NCCOCCOCCOCCn4cc(COc5ccc(N(C(=O)CCl)C(C(=O)NCCc6ccccc6)c6cccs6)cc5Cl)nn4)cc3)c2-c2ccc(OC)cc2)cc1 (centres unmarked) [GDAz-3, 4-((2-(3,5-bis(trifluoromethyl)phenyl)-4,5-bis(4-methoxyphenyl)-1H-imidazol-1-yl)methyl)-N-(2-(2-(2-(2-(4-((2-chloro-4-(2-chloro-N-(2-oxo-2-(phenethylamino)-1-(thiophen-2-yl)ethyl)acetamido)phenoxy)methyl)-1H-1,2,3-triazol-1-yl)ethoxy)ethoxy)ethoxy)ethyl)benzamide]",GPX4 degradation in wild-type and CRBN- or VHL-knockdown HT1080 cells,"[1]; 0.5 µM, 24 h",promoted the degradation of GPX4
same,GPX4 degradation in BAG3-knockdown cells,"[1]; BAG3 siRNA HT1080 cells, 24 h",completely abolished
same,GPX4 degradation in CHIP-knockdown cells,"[1]; CHIP siRNA HT1080 cells, 24 h",did not induce any detectable protein degradation of GPX4
same,Reduction of the GPX4 protein level,"[1]; HT1080 cells, 0.1 µM, 24 h",≈ 50%
same,GPX4 degradation,"[1]; HT1080 cells, 0.3 µM, 24 h (Figure 3A)",effectively triggered substantial GPX4 degradation
same,Sustained GPX4 degradation upon washout,"[1]; HT1080 cells, 1 µM for 24 h, then rinsed with PBS",without obvious recovery even 24 h after removal of the degrader
same,"GPX4 protein level, degradation kinetics","[1]; HT1080 cells, 1 µM, 8 h",obviously reduced GPX4 protein level
same,GPX4 degradation efficiency versus reported GPX4 degraders,"[1]; HT1080 cells, 1 µM, 24 h",comparable GPX4 degradation efficiency
same,"GPX4 protein level, degradation kinetics","[1]; HT1080 cells, 1 µM, 24 h",complete GPX4 depletion
same,DC50,"[1]; HT1080 cells, 24 h",130 nM
same,GPX4 degradation effect in combination with 3-methyladenine (3-MA),"[1]; HT1080 cells, 24 h",partially rescued
same,GPX4 degradation effect after proteasome inhibitor,"[1]; HT1080 cells, MG132 5 µM for 2 h before GDAz-3 for 24 h",completely abrogated
same,remaining activity at 0.5 µM,[1]; GDAz-3 0.5 µM 12 h after pre-treatment with MLN4924 2.5 µM for 2 h,61%
same,remaining activity at 0.5 µM,"[1]; GDAz-3 0.5 µM, 12 h",45%
same,remaining activity at 1 µM,"[1]; HT-1080, HT-1080, 1 µM, 24 h",45%
same,remaining activity at 1 µM,"[1]; HT-1080, HT-1080-siRNA-LAMP2A (LAMP2A knockdown), 1 µM, 24 h",68%
same,GPX4 degradation in Hsc70-knockdown cells,"[1]; Hsc70 siRNA HT1080 cells, 1 µM, 24 h",markedly abrogated
same,GPX4 degradation in Hsp70-knockdown cells,"[1]; Hsp70 siRNA HT1080 cells, 24 h",not affected
same,Kd,[2],1170 nM
same,Content of MDA,[3],increased
